{"source": "PubChem BioAssay AID1996"}
{"details": "buffer; pH 7.4; 200.0 µM", "units": {"solubility kinetic": "µg/mL"}}
{"smiles": "COc1ccc(CCNC(=O)c2ccc3c(c2)OCO3)cc1", "solubility kinetic": 2.5}
{"smiles": "N/C(CS(=O)(=O)c1ccccn1)=N\\OC(=O)c1ccccc1Cl", "solubility kinetic": 46.5}
{"smiles": "COc1ccc2c(c1)[nH]c1c(=O)n(CCN3CCOCC3)cnc12", "solubility kinetic": 47.6}
{"smiles": "Nc1nonc1C(=O)NCCNC(=O)c1ccc(Cl)cc1", "solubility kinetic": "> 46.5"}
{"smiles": "COC(=O)c1[nH]c2ccccc2c1Sc1ccccc1", "solubility kinetic": 0.9}
{"smiles": "COc1cccc(CNC(=O)Cn2nc(C)c([N+](=O)[O-])c2C)c1", "solubility kinetic": "> 47.7"}
{"smiles": "O=C(CCNC(=O)c1ccco1)NCc1ccc(F)cc1", "solubility kinetic": "> 43.5"}
{"smiles": "O=C(CC1SC(N2CCOCC2)=NC1=O)Nc1cccc(C(F)(F)F)c1", "note": "(stereo not drawn)", "solubility kinetic": 27.8}
{"smiles": "CC(=O)Nc1ccc(SCC(=O)NC(=O)c2ccc(S(=O)(=O)N(C)C)cc2)cc1", "solubility kinetic": "> 65.3"}
{"smiles": "O=C(NC(=S)NC12CC3CC(CC(C3)C1)C2)c1ccc(F)cc1", "solubility kinetic": 2.3}
{"smiles": "Cc1cccc(CC(=O)Nc2cccnc2)c1", "solubility kinetic": 31}
{"smiles": "CCC(C)(C)c1ccc(Oc2ccc(N)cc2)cc1", "solubility kinetic": 4.2}
{"smiles": "COc1cccc(Nc2nc(-c3ccccc3O)nc3ccccc23)c1", "solubility kinetic": "< 0.2"}
{"smiles": "COC(=O)c1nc(-c2ccccc2)oc1N1CCOCC1", "solubility kinetic": "> 43.2"}
{"smiles": "CSc1ccccc1NC(=O)C1CC(c2ccccc2Cl)=NO1", "note": "(stereo not drawn)", "solubility kinetic": 0.8}
{"smiles": "COC(=O)c1cccc(Cn2cc([N+](=O)[O-])cn2)c1", "solubility kinetic": "> 39.2"}
{"smiles": "Cc1cccc(NS(=O)(=O)c2c(C)noc2C)c1", "solubility kinetic": "> 39.9"}
{"smiles": "CCNC(=O)CSc1nc(-c2ccc(F)cc2)cs1", "solubility kinetic": 42.8}
{"smiles": "CCOC(=O)/C(C#N)=C/c1cccn1-c1ccc(Cl)cc1", "solubility kinetic": "< 0.3"}
{"smiles": "Cc1ccc(OCCNC(=O)CNC(=O)c2ccccc2Cl)cc1", "solubility kinetic": "> 52"}
{"smiles": "Nc1cc(=O)[nH]c(SCC(=O)c2ccc(O)cc2O)n1", "solubility kinetic": "> 44"}
{"smiles": "O=C(NC1CC1)c1nc(Cn2ccc([N+](=O)[O-])n2)no1", "solubility kinetic": "> 41.7"}
{"smiles": "O=C(COC(=O)c1cnccn1)NC(=O)c1ccccc1", "solubility kinetic": "> 42.8"}
{"smiles": "Cc1ccccc1C(=O)NCCCNC(=O)c1cnccn1", "solubility kinetic": 40.1}
{"smiles": "Cc1ccccc1NC(=O)c1cc[n+]([O-])cc1", "solubility kinetic": "> 34.2"}
{"smiles": "O=C(O)CCC(=O)Nc1ccc(Oc2ncnc3cc(Cl)ccc23)nc1", "solubility kinetic": "> 55.9"}
{"smiles": "CC(=O)Nc1ccc(NC(=O)CNC(=O)c2cccc(C)c2)cc1", "solubility kinetic": 20.4}
{"smiles": "CCc1ccc(N2CC(C(=O)NC3CC3)CC2=O)cc1", "note": "(stereo not drawn)", "solubility kinetic": "> 40.9"}
{"smiles": "CC(=O)Nc1cc2c3c(c1)CC(=O)N3CCC2", "solubility kinetic": "> 34.5"}
{"smiles": "CCOc1ccc(C(=O)Nc2ccc3c(c2)OCCO3)cc1", "solubility kinetic": "< 0.6"}
{"smiles": "COc1ccccc1OCCCCn1c(C(C)O)nc2ccccc21", "note": "(stereo not drawn)", "solubility kinetic": 49.9}
{"smiles": "CCn1c(-c2ccc[nH]c2=O)nc2ccccc21", "solubility kinetic": "> 35.9"}
{"smiles": "COCC(=O)Nc1ccc2c(c1)OCC(=O)N2Cc1ccc(C)cc1", "solubility kinetic": 20.9}
{"smiles": "Cc1csc(NC(=O)CSc2nncc(=O)n2N)n1", "solubility kinetic": "> 44.8"}
{"smiles": "CC[N+](C)(C)c1cccc(O)c1.[Cl-]", "solubility kinetic": "> 30.3"}
{"smiles": "Cc1cc(=O)[nH]c(SCC(=O)Nc2ccc3c(c2)CCC3)c1C#N", "solubility kinetic": 17.7}
{"smiles": "O=C(c1cc(-c2ccccc2Cl)on1)N1CCCC1", "solubility kinetic": "> 41.5"}
{"smiles": "CC(C)(C)C(=O)/C(C#N)=C/c1cccs1", "solubility kinetic": 10.9}
{"smiles": "Cc1cc(=O)[nH]c2ccc(S(=O)(=O)NC3CCCCC3)cc12", "solubility kinetic": 4.5}
{"smiles": "CCC(Oc1ccc(F)cc1)C(=O)N1CCCCCCC1", "note": "(stereo not drawn)", "solubility kinetic": 34.8}
{"smiles": "COc1ccc(NC(=O)C2CCCN(C(=O)Nc3ccc(OC)cc3)C2)cc1", "note": "(stereo not drawn)", "solubility kinetic": 7.5}
{"smiles": "O=C(NCc1ccco1)c1cc([N+](=O)[O-])ccc1N1CCOCC1", "solubility kinetic": 46.4}
{"smiles": "CS(=O)(=O)N(CC(=O)NCC1CCCO1)c1cccc(Cl)c1", "note": "(stereo not drawn)", "solubility kinetic": "> 52"}
{"smiles": "CC1CCCN(C(=O)CN2C(=O)NC(C)(c3ccc4ccccc4c3)C2=O)C1", "note": "(stereo not drawn)", "solubility kinetic": "> 56.9"}
{"smiles": "O=C(O)CCN1C(=O)C2C3c4ccccc4C(c4ccccc43)C2C1=O", "note": "(stereo not drawn)", "solubility kinetic": "> 52.1"}
{"smiles": "CC(NS(=O)(=O)c1ccccc1)C1CC2CCC1C2", "note": "(stereo not drawn)", "solubility kinetic": 6}
{"smiles": "Cc1ccc(-c2onc3ccc(C4OCCO4)cc23)cc1", "solubility kinetic": 1}
{"smiles": "O=C(NC1CCSc2ccccc21)c1ccc([N+](=O)[O-])cc1", "note": "(stereo not drawn)", "solubility kinetic": 3.5}
{"smiles": "O=C(COc1ccc(F)cc1)Nc1nc2c(s1)CCCC2", "solubility kinetic": 2.6}
{"smiles": "Cc1csc(NC(=O)c2ccc(Cl)nc2)n1", "solubility kinetic": "> 38.1"}
{"smiles": "CC(C)(CN1CCCC1)NS(=O)(=O)c1ccccc1.Cl", "solubility kinetic": "> 47.8"}
{"smiles": "O=C(NCCCCc1ccccc1)c1ccccc1", "solubility kinetic": 14.4}
{"smiles": "Cc1ccccc1C(=O)NCCNC(=O)c1cnccn1", "solubility kinetic": 35.7}
{"smiles": "Cc1cccc(N2CC(C(=O)Nc3ccc(N4CCOCC4)cc3)CC2=O)c1C", "note": "(stereo not drawn)", "solubility kinetic": "> 59"}
{"smiles": "O=C(NC(=S)Nc1ccc(Br)c(Cl)c1)C1CC1", "solubility kinetic": "< 0.4"}
{"smiles": "CN1CCN(C(=S)C(=O)NCc2ccccc2)CC1", "solubility kinetic": "> 41.6"}
{"smiles": "Cc1cc(C)nc(NC=C2C(=O)OC(C)(C)OC2=O)n1", "solubility kinetic": 41}
{"smiles": "Cc1ccc(C(=O)NCC(=O)OCC(=O)c2ccccc2)s1", "solubility kinetic": "> 47.6"}
{"smiles": "CCc1ccc(NC(=O)CCc2ccc(C)o2)cc1", "solubility kinetic": 5.3}
{"smiles": "C=CCn1c(SCC(=O)N(C)C)nc2sc3c(c2c1=O)CCC3", "solubility kinetic": 3.4}
{"smiles": "O=C(Nc1ccccc1)OCCCc1ccccc1", "solubility kinetic": 9.7}
{"smiles": "COc1cccc(OCCNS(=O)(=O)c2cccc([N+](=O)[O-])c2)c1", "solubility kinetic": 46.6}
{"smiles": "COc1ccc(Nc2nc(N)c(C(=O)c3ccc(F)cc3)s2)cc1", "solubility kinetic": 5.2}
{"smiles": "Cc1ccc2[nH]c(C(=O)N3CCN(c4cccc(Cl)c4)CC3)cc2c1", "solubility kinetic": "< 0.3"}
{"smiles": "C=C(C)Cn1c(N2CCCC2)nc2c1c(=O)n(C)c(=O)n2C", "solubility kinetic": 33.6}
{"smiles": "CCN(CC)S(=O)(=O)c1ccc(NC(=S)NC(=O)C2CCC2)cc1", "solubility kinetic": 18.7}
{"smiles": "Cc1c(-c2ccncc2)oc2ccc(Br)cc2c1=O", "solubility kinetic": "< 0.7"}
{"smiles": "Cc1ccc(NC(=O)CN2C(=O)NC3(CCCc4ccccc43)C2=O)c(Cl)c1", "note": "(stereo not drawn)", "solubility kinetic": 47}
{"smiles": "COc1c(C)cccc1C(=O)NCCCNC(=O)c1ccc(C)nc1", "solubility kinetic": 46.8}
{"smiles": "O=C(O)Cn1c(O)c(C2=c3ccccc3=NC2=O)sc1=O", "solubility kinetic": 39.4}
{"smiles": "CCN(C(=O)Cn1c(=O)oc2ccccc21)c1ccc(C)c(C)c1", "solubility kinetic": 11.7}
{"smiles": "Nc1c([N+](=O)[O-])cc(-c2cnc[nH]2)cc1[N+](=O)[O-]", "solubility kinetic": "< 0.1"}
{"smiles": "CCOc1cc(CC(=O)N[C@@H](CC(C)C)c2ccccc2N2CCCCC2)ccc1C(=O)O", "solubility kinetic": "> 67.9"}
{"smiles": "CCc1ccc2[nH]c(C)c(CN3CCCCCC3)c(=O)c2c1", "solubility kinetic": "> 44.8"}
{"smiles": "COC(=O)c1sccc1NC(=S)Nc1cc(C)ccc1OC", "solubility kinetic": 36.3}
{"smiles": "CC1=NOC(=O)/C1=C/c1ccc(O)c(Br)c1", "solubility kinetic": 32.4}
{"smiles": "O=C(O)CC(NC(=O)C12CC3CC(CC(C3)C1)C2)c1ccc(F)cc1", "note": "(stereo not drawn)", "solubility kinetic": "> 51.8"}
{"smiles": "COc1cc(C(=O)Nc2ccc(Nc3ccccc3)cc2)cc(OC)c1OC", "solubility kinetic": 4.4}
{"smiles": "NC(=O)c1ccc(NC(=O)c2cccc3c2OCCCO3)cc1", "solubility kinetic": 14.5}
{"smiles": "CCOc1ccc2oc(C(=O)Nc3cc(C)ccn3)c(C)c2c1", "solubility kinetic": 1.2}
{"smiles": "Cc1nc(N2CCN(C(=O)c3ccco3)CC2)[nH]c(=O)c1C", "solubility kinetic": "> 45.3"}
{"smiles": "Nc1cc(S(=O)(=O)N2CCCCC2)ccc1N1CCOCC1", "solubility kinetic": 38.7}
{"smiles": "COc1ccccc1CNC(=O)N1CCN(c2ccccc2)CC1", "solubility kinetic": "> 48.8"}
{"smiles": "O=S(=O)(c1ccc2c(c1)CCCN2)N1CCCC1", "solubility kinetic": "> 40"}
{"smiles": "CCN(CC)c1ccc(NC(=S)NC(=O)c2cccs2)cc1", "solubility kinetic": "< 0.2"}
{"smiles": "CN(CC(=O)Nc1cccc(F)c1)CC(=O)N1CCCCC1", "solubility kinetic": "> 46.1"}
{"smiles": "CN1C(=O)c2ccccc2Sc2ccc(C(=O)O)cc21", "solubility kinetic": "> 42.8"}
{"smiles": "COc1ccc(N(CC(=O)N2CCOCC2)S(C)(=O)=O)cc1OC", "solubility kinetic": "> 53.8"}
{"smiles": "O=C(CSc1n[nH]c(-c2ccc(Br)cc2)n1)N1CCOCC1", "solubility kinetic": "> 57.5"}
{"smiles": "FC(F)Oc1ccc(NC(=S)NCc2cccnc2)cc1", "solubility kinetic": "> 46.4"}
{"smiles": "CCN1CCN(c2ccc(S(=O)(=O)N3CCOCC3)cc2N)CC1", "solubility kinetic": "> 53.2"}
{"smiles": "CC(=O)NCCc1ccc(C(=O)COC(=O)c2cccn2C)cc1", "solubility kinetic": "> 49.3"}
{"smiles": "COc1cc(OC)cc(C(=O)Nc2ccc3c(c2)OCCO3)c1", "solubility kinetic": 44.8}
{"smiles": "CCc1nc2ccccc2n1CCc1ccccc1.Cl", "solubility kinetic": 37.6}
{"smiles": "CSCCC(NC(=O)COc1ccccc1)C(=O)NCc1cccs1", "note": "(stereo not drawn)", "solubility kinetic": "> 56.8"}
{"smiles": "N#Cc1ccsc1NC(=O)CN1C(=O)NC2(CCCCC2)C1=O", "solubility kinetic": 47.3}
{"smiles": "CN(C)c1cc(-c2ccc(C#N)cc2)oc(=O)c1Cl", "solubility kinetic": 2.7}
{"smiles": "CC1CCN(CC(O)COC2CC(C)CC(C)(C)C2)CC1.Cl", "note": "(stereo not drawn)", "solubility kinetic": 45.5}
{"smiles": "COc1ccc2c(c1)-c1nc(/N=C/c3ccccc3O)sc1CC2", "solubility kinetic": 44.5}
{"smiles": "Clc1ccc2nc(-c3ccccc3)nc(C(Cl)Cl)c2c1", "solubility kinetic": "< 0.3"}
{"smiles": "Cc1cc(NC(=O)CSCC(=O)N2CCN(c3ccccc3)CC2)no1", "solubility kinetic": "> 56.2"}
{"smiles": "Cc1ccc(NC(=O)C(C)SCc2nc3sc4c(c3c(=O)[nH]2)CCCC4)nc1", "note": "(stereo not drawn)", "solubility kinetic": 29.4}
{"smiles": "Cc1ccc(C(=O)Nc2ccccc2C(=O)N2CCCCCC2)cc1", "solubility kinetic": "> 50.5"}
{"smiles": "O=C(O)C1CCN(c2ccc([N+](=O)[O-])cc2[N+](=O)[O-])CC1", "solubility kinetic": "> 44.3"}
{"smiles": "CSc1ccc(CN2C(=O)NC3(CCCCCCC3)C2=O)cc1", "solubility kinetic": 5.6}
{"smiles": "CN1CCN(CCNC(=O)Nc2ccccc2[N+](=O)[O-])CC1", "solubility kinetic": 45.5}
{"smiles": "CNc1ncnc2sc(-c3ccccc3)cc12", "solubility kinetic": 4.3}
{"smiles": "COc1ccccc1C1CCN(Cc2cccc([N+](=O)[O-])c2)CC1", "solubility kinetic": 16.4}
{"smiles": "COc1ccccc1CNC(=O)CNC(=O)c1sc2ccccc2c1Cl", "solubility kinetic": 7.6}
{"smiles": "O=C(CCCCC(=O)NCCc1ccccc1)NCCc1ccccc1", "solubility kinetic": 2.8}
{"smiles": "COc1ccc(CN2CCN(C(=O)c3ccc4c(c3)CCC4)CC2)cc1OC", "solubility kinetic": 39.5}
{"smiles": "CCc1cccc(C)c1NC(=O)c1cccnc1", "solubility kinetic": 34.4}
{"smiles": "Clc1cccc(CN2CCc3c([nH]c4ccccc34)C2)c1", "solubility kinetic": 8.2}
{"smiles": "CC(C)n1c(SCC(=O)NC2CCCCC2)nnc1-c1ccco1", "solubility kinetic": "> 52.3"}
{"smiles": "Cc1ccc(S(=O)(=O)N2CCC(C(=O)NCCCN3CCCC3=O)CC2)cc1", "solubility kinetic": 51.9}
{"smiles": "CCCn1c(SCC(=O)Nc2ccc(Cl)cc2F)nc(O)cc1=O", "solubility kinetic": "> 55.8"}
{"smiles": "O=C(Nc1cccnc1)c1ccc([N+](=O)[O-])s1", "solubility kinetic": 9.9}
{"smiles": "Cn1c(C(=O)O)c(S(=O)(=O)c2ccc(Cl)cc2)c2ccccc21", "solubility kinetic": 51.8}
